From ChEMBL document CHEMBL1158654, “Cytotoxic principles from the sap of Kalmia latifolia” (J Nat Prod, 1979) come the findings set out here.

In general, LD50 refers to the dose expected to kill half of the subjects tested. The low end stands for greater toxicity, the high end for lower toxicity. The T/C is the ratio of treated to control.

Data set [1] in a line: Cytotoxicity against human 9KB cells assessed as cell survival at 100 ug/ml relative to control. The class given is functional. Conditions: read-out: Activity.
Data set [2] is described as follows: Cytotoxicity against human 9KB cells assessed as cell survival at 10 ug/ml relative to control. The class given is functional. Conditions: read-out: Activity.
Data set [3] can be described thus: Cytotoxicity against human 9KB cells relative to control. The data set is classed as functional. As to conditions: read-out: ED50 (the source's name).
A short description of data set [4]: Toxicity in ip dosed mouse. The class given is organism-based. As to conditions: in vivo.
A short description of data set [5]: Cytotoxicity against human 9KB cells in in-vivo based assay at 65 mg/kg relative to control. The data set is classed as functional.
In data set [6] the test system is P388. In words: Cytotoxicity against mouse P388 cells relative to control. The data set is classed as functional.

Each structure is given as a SMILES string. Values after ≈ are worked out from the molar mass of the structure shown.

Consider `O=C(CCc1ccc(O)c(O)c1)c1ccccc1O`, for which the viability at 100 µg/mL in data set [1] came out at 0%. In addition, the viability at 10 µg/mL in data set [2] came out at 100%.

Take `O=C(CCc1ccc(O)cc1)c1ccc(O)c(O)c1O`: in data set [1], the viability at 100 µg/mL came out at 0%. The viability at 10 µg/mL in data set [2] worked out at 100%.

With `COc1cc(O)c(C(C)=O)c(O)c1`, the viability at 100 µg/mL in data set [1] was 0%. In addition, the viability at 10 µg/mL in data set [2] worked out at 0%. Further, the EC50 in data set [3] is 4.7 µg/mL (≈ 25.8 µM).

For the molecule `CC(=O)O[C@@H]1[C@H]2CC[C@H]3[C@@](C)(O)[C@@H]4C[C@H](O)C(C)(C)[C@@]4(O)[C@H](O)C[C@@]13C[C@@]2(C)O` [GRAYANOTOXIN I], the EC50 in data set [3] was 60 µg/mL (≈ 145 µM). Also, in data set [4], the LD50 stood at 1.3 mg/kg.

As to `O=C(CCc1ccc(O)c(O)c1)c1c(O)cc(O)cc1O`, the viability at 100 µg/mL in data set [1] is 0%. For the same molecule, the viability at 10 µg/mL in data set [2] was 95%.

With `COc1cc(C(=O)CCc2ccc(O)cc2)ccc1O`, the viability at 100 µg/mL in data set [1] came out at 0%. Also, in data set [2], the viability at 10 µg/mL worked out at 57%.

As to `O=C(CCc1ccc(O)c(O)c1)c1ccc(O)c(O)c1O`, the viability at 100 µg/mL in data set [1] was found to be 0%. Also, in data set [2], the viability at 10 µg/mL worked out at 0%. The EC50 in data set [3] was 2.5 µg/mL (≈ 8.61 µM). In data set [5], this molecule displayed a T/C of 126%.

Turning to `O=C(CCc1ccc(O)cc1)c1c(O)cccc1O`, the viability at 100 µg/mL in data set [1] is 20%. For the same molecule, the viability at 10 µg/mL in data set [2] was 100%.

Take `COc1cc(O)c(Cc2ccccc2O)c(O)c1C(=O)CCc1ccccc1` [UVARETIN]: the T/C in data set [6] is 132%.

As for `COc1cc(O)c(C(=O)CCc2ccc(O)cc2)c(O[C@@H]2O[C@H](CO)[C@@H](O)[C@H](O)[C@H]2O)c1` [ASEBOTIN], in data set [1], the viability at 100 µg/mL amounted to 100%. Besides, the viability at 10 µg/mL in data set [2] turned out to be 100%.

As for `O=C(CCc1ccc(O)cc1)c1c(O)cc(O)cc1O` [PHLORETIN], the viability at 100 µg/mL in data set [1] worked out at 0%. The viability at 10 µg/mL in data set [2] was 76%. The EC50 in data set [3] is 28 µg/mL (≈ 102 µM).

On to `COc1cc(O)c(C(=O)CCc2ccc(O)cc2)c(O)c1` [ASEBOGENIN], for which the viability at 100 µg/mL in data set [1] stood at 0%. Moreover, in data set [2], the viability at 10 µg/mL stood at 100%.

In the case of `CC(=O)c1c(O)cc(O)cc1O` [2,4,6-TRIHYDROXYACETOPHENONE], in data set [1], the viability at 100 µg/mL worked out at 29%. Moreover, the viability at 10 µg/mL in data set [2] was found to be 100%.

For the molecule `O=C(CCc1ccc(O)cc1)c1ccccc1`, in data set [1], the viability at 100 µg/mL was 0%. Further, the viability at 10 µg/mL in data set [2] turned out to be 89%.

On to `COc1cc(O)c(C(C)=O)c(OC)c1` [XANTHOXYLIN], for which, in data set [1], the viability at 100 µg/mL amounted to 0%. The viability at 10 µg/mL in data set [2] amounted to 100%.

`COc1ccc(C(=O)CCc2ccc(O)cc2)c(O)c1`: in data set [1], the viability at 100 µg/mL was 0%. The viability at 10 µg/mL in data set [2] is 100%.

For the molecule `COc1cc(CCC(=O)c2ccccc2)ccc1O`, in data set [1], the viability at 100 µg/mL was found to be 0%. Further, the viability at 10 µg/mL in data set [2] was found to be 82%.

For `COc1cc(O)c(C(C)=O)c(O[C@@H]2O[C@H](CO)[C@@H](O)[C@H](O)[C@H]2O)c1` [PLEOSIDE], in data set [1], the viability at 100 µg/mL is 39%. In data set [2], the viability at 10 µg/mL was 100%.

Consider `O=C(CCc1ccc(O)cc1)c1ccc(O)cc1`, for which the viability at 100 µg/mL in data set [1] is 0%. The viability at 10 µg/mL in data set [2] was 90%.

With `CC(=O)c1ccc(O)c(O)c1O` [GALLACETOPHENONE], the viability at 100 µg/mL in data set [1] is 0%. Also, in data set [2], the viability at 10 µg/mL amounted to 81%.

As for `COc1ccc(CCC(=O)c2c(O)cc(O)cc2O)cc1O`, the viability at 100 µg/mL in data set [1] amounted to 46%. For the same molecule, the viability at 10 µg/mL in data set [2] was determined as 100%.

On to `O=C(CCc1ccccc1)c1c(O)cc(O)cc1O`, for which the viability at 100 µg/mL in data set [1] was 0%. The viability at 10 µg/mL in data set [2] amounted to 100%.

Consider `COc1cc(O)c(C(=O)CCc2ccccc2)c(OC)c1`, for which the viability at 100 µg/mL in data set [1] was 0%. Moreover, the viability at 10 µg/mL in data set [2] turned out to be 59%.

Turning to `O=C(CCc1ccc(O)cc1)c1cccc(O)c1`, in data set [1], the viability at 100 µg/mL came out at 0%. Moreover, the viability at 10 µg/mL in data set [2] was 71%.

As to `COc1cc(CCC(=O)c2ccccc2O)ccc1O`, the viability at 100 µg/mL in data set [1] turned out to be 0%. Further, in data set [2], the viability at 10 µg/mL is 76%.

Take `O=C(CCc1ccc(O)cc1)c1c(O)cc(O)cc1O[C@@H]1O[C@H](CO)[C@@H](O)[C@H](O)[C@H]1O` [PHLORIZIN]: in data set [1], the viability at 100 µg/mL is 47%. In data set [2], the viability at 10 µg/mL was 100%. The EC50 in data set [3] was determined as 100 µg/mL (≈ 229 µM).

On to `O=C(CCc1ccc(O)cc1)c1ccccc1O`, for which, in data set [1], the viability at 100 µg/mL stood at 0%. Besides, in data set [2], the viability at 10 µg/mL came to 100%.

For `O=C(CCc1ccc(O)cc1)c1ccc(O)cc1O` [DAVIDIGENIN], the viability at 100 µg/mL in data set [1] worked out at 0%. Moreover, the viability at 10 µg/mL in data set [2] worked out at 50%.
